Experimental data taken from patent US20110105457A1, “HETEROCYCLIC COMPOUND HAVING INHIBITORY ACTIVITY ON PI3K” (SHIONOGI & CO., LTD., priority 2008, published 2011).

Target: PI-3 kinase γ (Homo sapiens, UniProt P48736)
Assay: PI3Kγ inhibitory activity, PI3-kinase HTRF assay (Millipore)
Assay type: biochemical
Conditions: 0.5 h; compound 50 μM; read-out: Inhibition ratio % (50 μM)
Method: (Method) The PI3Kγ inhibitory activity of a compound was evaluated using PI3-kinase HTRF™ assay (Millipore) according to the following procedure.
To each well of a testing plate was added 5 μL of a compound solution comprising 10% DMSO (200 μM as the concentration of the compound), 5 μL of 40 μM phosphatidylinositol (4,5)-bisphosphate/20 mM MgCl2/10 mM DTT, and 5 μL of 80 μg/mL PI-3 kinase γ/10 mM MgCl2/5 mM DTT, and then stood for 10 minutes.
Then, 5 μL of 40 μM ATP/10 mM MgCl2/5 mM DTT was added thereto. After reacting for 30 minutes at room temperature, 5 μL of a solution comprising EDTA and biotinylated phosphatidylinositol (3,4,5)-triphosphate was added to quench the reaction.
5 μL of a detection reagent comprising a europium-labeled anti-GST antibody, the GST-tagged PH domain, and allophycocyanin-labeled streptavidin was added thereto. After 18 hours, HTRF (excitation wavelength: 330 nm, measuring wavelengths: 620 nm and 665 nm) was measured.
A value of dividing an amount of fluorescence obtained at the measuring wavelength 665 nm by an amount of fluorescence obtained at 620 nm was defined as an HTRF ratio. The HTRF ratio in the absence of a compound was defined as 100% activity, and the HTRF ratio in the absence of PI-3 kinase γ was defined as 0% activity to calculate an inhibition ratio.

PI-3 kinase γ, sequence (P48736 whole entry): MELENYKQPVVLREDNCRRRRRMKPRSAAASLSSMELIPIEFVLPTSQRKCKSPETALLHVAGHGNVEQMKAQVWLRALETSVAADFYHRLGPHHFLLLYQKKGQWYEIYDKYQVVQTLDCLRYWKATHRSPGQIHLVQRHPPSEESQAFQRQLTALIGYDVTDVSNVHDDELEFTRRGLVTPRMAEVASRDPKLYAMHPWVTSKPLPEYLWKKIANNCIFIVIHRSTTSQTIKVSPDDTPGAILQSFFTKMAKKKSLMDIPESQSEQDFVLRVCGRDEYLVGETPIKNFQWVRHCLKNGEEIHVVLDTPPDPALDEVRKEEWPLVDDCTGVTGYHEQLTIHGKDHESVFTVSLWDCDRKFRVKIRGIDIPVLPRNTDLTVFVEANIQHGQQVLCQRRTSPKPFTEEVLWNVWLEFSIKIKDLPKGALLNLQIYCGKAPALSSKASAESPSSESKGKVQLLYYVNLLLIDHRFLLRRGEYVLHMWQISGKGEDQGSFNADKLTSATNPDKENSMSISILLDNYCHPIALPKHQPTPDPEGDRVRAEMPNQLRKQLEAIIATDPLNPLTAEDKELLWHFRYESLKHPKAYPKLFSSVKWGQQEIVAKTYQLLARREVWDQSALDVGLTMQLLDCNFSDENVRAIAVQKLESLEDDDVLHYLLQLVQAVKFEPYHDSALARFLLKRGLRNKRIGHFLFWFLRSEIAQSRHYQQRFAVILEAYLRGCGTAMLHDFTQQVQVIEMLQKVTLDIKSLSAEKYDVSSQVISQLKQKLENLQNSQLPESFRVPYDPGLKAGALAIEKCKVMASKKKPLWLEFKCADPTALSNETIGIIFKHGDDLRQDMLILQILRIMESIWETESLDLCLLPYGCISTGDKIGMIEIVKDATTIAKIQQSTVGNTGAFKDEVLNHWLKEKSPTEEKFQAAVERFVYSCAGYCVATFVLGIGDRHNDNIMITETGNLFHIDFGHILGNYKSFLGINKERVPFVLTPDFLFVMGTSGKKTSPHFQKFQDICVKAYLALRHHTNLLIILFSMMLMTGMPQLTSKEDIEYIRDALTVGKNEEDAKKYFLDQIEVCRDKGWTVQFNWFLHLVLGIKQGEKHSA

Row | inhibition at 50 µM | SMILES
1 | 64% | COc1cccc(-c2ccc3nc(NC(=O)c4ccccn4)cn3n2)c1 [Compound I-168]
2 | 91% | CNC(=O)Nc1cn2nc(-c3ccsc3)ccc2n1 [Compound I-38]
3 | 64% | CNC(=O)Nc1cn2nc(-c3ccc(Cl)cc3)ccc2n1 [Compound I-60]
4 | 64% | CNC(=O)Nc1cn2nc(C(=O)NCCOC)ccc2n1 [Compound I-49]
5 | 76% | COc1cccc(-c2ccc3nc(NC(=O)NCC4COCCO4)cn3n2)c1 (centres unmarked) [Compound I-258]
6 | 64% | COc1cccc(-c2ccc3nc(NC(=O)NN4CCc5ccccc54)cn3n2)c1 [Compound I-269]
7 | 77% | COc1cccc(-c2ccc3nc(NC(=O)NCc4ccoc4)cn3n2)c1 [Compound I-254]
8 | 87% | CNC(=O)Nc1cn2nc(Nc3cccc(CO)c3)ccc2n1 [Compound I-222]
9 | 85% | COc1cccc(-c2ccc3nc(NC(=O)c4ccc5[nH]nnc5c4)cn3n2)c1 [Compound I-177]
10 | 57% | CNC(=O)Nc1cn2nc(C(=O)Nc3cccc(C(=O)O)c3)ccc2n1 [Compound I-33]
11 | 52% | COC(=O)c1cccc(C(=O)Nc2cn3nc(-c4cccc(OC)c4)ccc3n2)c1 [Compound I-192]
12 | 77% | CNC(=O)Nc1cn2nc(-c3ccc(C)cc3)ccc2n1 [Compound I-66]
13 | 87% | COc1cccc(-c2ccc3nc(Nc4cccc([N+](=O)[O-])c4)cn3n2)c1 [Compound I-286]
14 | 74% | COc1cccc(-c2ccc3nc(NC(=O)NCCNC(C)=O)cn3n2)c1 [Compound I-237]
15 | 69% | CNC(=O)Nc1cn2nc(-c3ccc(C#N)cc3)ccc2n1 [Compound I-71]
16 | 72% | CNC(=O)Nc1cn2nc(-c3ccc(Cl)c(Cl)c3)ccc2n1 [Compound I-67]
17 | 60% | COc1cccc(-c2ccc3nc(NC(=O)c4ccncc4)cn3n2)c1 [Compound I-170]
18 | 71% | COc1cccc(-c2ccc3nc(NC(=O)NCc4ccco4)cn3n2)c1 [Compound I-234]
19 | 82% | COC(=O)[C@H]1CC[C@@H](C(=O)Nc2cn3nc(-c4cccc(OC)c4)ccc3n2)C1 [Compound I-195]
20 | 81% | CNC(=O)Nc1cn2nc(C3=CCCC3)ccc2n1 [Compound I-79]
21 | 71% | COc1cccc(-c2ccc3nc(NC(=O)NCCNC(=O)OC(C)(C)C)cn3n2)c1 [Compound I-263]
22 | 86% | COc1cccc(-c2ccc3nc(Nc4cccc(C(C)=O)c4)cn3n2)c1 [Compound I-283]
23 | 89% | CNC(=O)Nc1cn2nc(Nc3cccc(C(=O)O)c3)ccc2n1 [Compound I-162]
24 | 79% | CNC(=O)Nc1cn2nc(-c3cccc(C)c3)ccc2n1 [Compound I-65]

Continued, molecule first:

Row | SMILES | inhibition at 50 µM
25 | CNC(=O)Nc1cn2nc(Sc3cccc(OC)c3)ccc2n1 [Compound I-281] | 78%
26 | CNC(=O)Nc1cn2nc(-c3cccc(C#N)c3)ccc2n1 [Compound I-134] | 59%
27 | CNC(=O)Nc1cn2nc(COc3ccccc3)ccc2n1 [Compound I-157] | 58%
28 | CCOC(=O)CCNC(=O)Nc1cn2nc(-c3cccc(OC)c3)ccc2n1 [Compound I-259] | 68%
29 | CNC(=O)Nc1cn2nc(-c3cccc(Cl)c3)ccc2n1 [Compound I-59] | 52%
30 | CNC(=O)Nc1cn2nc(-c3cccc(C(=O)NCC(C)C)c3)ccc2n1 [Compound I-140] | 60%
31 | COc1cccc(-c2ccc3nc(NC(=O)N4CCC[C@H]4C(=O)OC(C)(C)C)cn3n2)c1 [Compound I-249] | 59%
32 | CNC(=O)Nc1cn2nc(COc3cccnc3)ccc2n1 [Compound I-218] | 63%
33 | CNC(=O)Nc1cn2nc(C(=O)NCc3ccc(OC)cc3)ccc2n1 [Compound I-44] | 57%
34 | COc1cccc(-c2ccc3nc(NC(=O)NC4CCCC4)cn3n2)c1 [Compound I-115] | 78%
35 | CCOC(=O)c1ccc2nc(NC(=O)NC)cn2n1 [Compound I-13] | 87%
36 | COc1cccc(-c2ccc3nc(NC(=O)NC4CCCCC4)cn3n2)c1 [Compound I-109] | 99%
37 | CNC(=O)Nc1cn2nc(Nc3cccc(N(C)C)c3)ccc2n1 [Compound I-161] | 102%
38 | CNC(=O)Nc1cn2nc(NC(=O)c3cccc(Cl)c3)ccc2n1 [Compound I-103] | 60%
39 | CNC(=O)Nc1cn2nc(-c3cccc(C(=O)N(C)C)c3)ccc2n1 [Compound I-82] | 79%
40 | CNC(=O)Nc1cn2nc(C(=O)Nc3ccc(C(=O)O)cc3)ccc2n1 [Compound I-52] | 80%
41 | CNC(=O)Nc1cn2nc(-c3ccncc3)ccc2n1 [Compound I-147] | 77%
42 | CNC(=O)Nc1cn2nc(/C=C/c3ccccc3)ccc2n1 [Compound I-70] | 78%
43 | CNC(=O)Nc1cn2nc(NC(=O)C3CCCC3)ccc2n1 [Compound I-4] | 57%

Row | SMILES | inhibition at 50 µM
44 | CNC(=O)Nc1cn2nc(NC(C)=O)ccc2n1 [Compound I-101] | 59%
45 | CNC(=O)Nc1cn2nc(/C=C/c3ccc(OC)cc3)ccc2n1 [Compound I-149] | 53%
46 | CNC(=O)Nc1cn2nc(-c3ccc(NS(C)(=O)=O)cc3)ccc2n1 [Compound I-73] | 70%
47 | CNC(=O)Nc1cn2nc(C(=O)Nc3ccc(O)cc3)ccc2n1 [Compound I-41] | 83%
48 | CNC(=O)Nc1cn2nc(-c3cccc(CO)c3)ccc2n1 [Compound I-69] | 89%
49 | COc1cccc(-c2ccc3nc(NC(=O)NCCC(=O)NC(C)(C)C)cn3n2)c1 [Compound I-272] | 61%
50 | COc1cccc(-c2ccc3nc(NC(=O)CN(C)C(=O)OC(C)(C)C)cn3n2)c1 [Compound I-212] | 60%
51 | COc1cccc(-c2ccc3nc(NC(=O)Nc4nccs4)cn3n2)c1 [Compound I-232] | 51%
52 | COc1cccc(-c2ccc3nc(NC(=O)c4cccc(N5CCOCC5)c4)cn3n2)c1 [Compound I-202] | 83%
53 | CNC(=O)Nc1cn2nc(Cc3ccccc3)ccc2n1 [Compound I-20] | 62%
54 | COc1cccc(-c2ccc3nc(NC(=O)NCCC(N)=O)cn3n2)c1 [Compound I-279] | 83%
55 | CCOC(=O)CCCNC(=O)Nc1cn2nc(-c3cccc(OC)c3)ccc2n1 [Compound I-257] | 83%
56 | CNC(=O)Nc1cn2nc(Oc3ccccc3)ccc2n1 [Compound I-19] | 65%
57 | CNC(=O)Nc1cn2nc(NC(=O)c3ccccc3)ccc2n1 [Compound I-104] | 55%
58 | COc1cccc(-c2ccc3nc(NC(=O)c4ccc(OC)c(OC)c4)cn3n2)c1 [Compound I-198] | 57%
59 | CNC(=O)Nc1cn2nc(-c3cccc(C(=O)NC(C)C)c3)ccc2n1 [Compound I-139] | 79%
60 | CNC(=O)Nc1cn2nc(-c3cncnc3)ccc2n1 [Compound I-145] | 70%
61 | COCCC(=O)Nc1cn2nc(-c3cccc(OC)c3)ccc2n1 [Compound I-213] | 73%
62 | COC(=O)c1cccc(Nc2cn3nc(-c4cccc(OC)c4)ccc3n2)c1 [Compound I-285] | 96%
